Data reported in DBAASP.
Values after ≈ are worked out from the molar mass of the structure shown.

Key:
Test in all cases: ≥ marks a high value that may be exact or a test limit, other limits are often not marked, values filed in µg/mL are converted to µM
[1] = tested on: Klebsiella pneumoniae ATCC 700603
[2] = tested on: Pseudomonas aeruginosa CMCCB 1010
[3] = tested on: Escherichia coli IS37#
[4] = tested on: Klebsiella pneumoniae IS59#
[5] = tested on: Pseudomonas aeruginosa ATCC 27853
[6] = tested on: Candida albicans ATCC 90028
[7] = tested on: Candida parapsilosis ATCC 22019
[8] = tested on: Enterobacter cloacae ATCC 13047
[9] = tested on: Staphylococcus aureus ATCC 25923
[10] = tested on: Shigella dysenteriae
[11] = tested on: Escherichia coli ATCC 25922
[12] = tested on: Enterococcus faecalis ATCC 29212
[13] = tested on: Pseudomonas aeruginosa IS350#
[14] = tested on: Candida albicans ATCC 2002
[15] = tested on: Escherichia coli IS117#
[16] = tested on: Pseudomonas aeruginosa ATCC 9027
[17] = tested on: Mycobacterium tuberculosis
[18] = tested on: Streptococcus agalactiae
[19] = tested on: Candida glabrata
[20] = tested on: Candida albicans
[21] = tested on: Mycobacterium tuberculosis H37Rv
[22] = tested on: Pseudomonas aeruginosa KCTC 1637
[23] = tested on: Staphylococcus epidermidis KCTC 3096
[24] = tested on: Salmonella typhimurium KCTC 1926
[25] = tested on: Candida albicans TIMM 1768
[26] = tested on: Trichosporon beigelii KCTC 7707
[27] = tested on: Bacillus subtilis KCTC 1918
[28] = tested on: Enterococcus faecalis V583
[29] = tested on: Staphylococcus aureus USA 100

## CC[C@H](C)[C@@H]1NC(=O)[C@H](C)NC(=O)[C@@H](NC(=O)[C@H](Cc2ccccc2)NC(=O)[C@@H](NC(=O)[C@H](C)NC(=O)[C@@H]2CCCN2C(=O)CNC(=O)[C@@H](NC(=O)[C@H](CCCCN)NC(=O)[C@H](C)NC(=O)[C@H](C)NC(=O)[C@@H](NC(=O)[C@H](CCCN=C(N)N)NC(=O)[C@H](CC(C)C)NC(=O)[C@@H](NC(=O)[C@H](C)NC(=O)[C@@H]2CCCN2C(=O)[C@H](CC(C)C)NC(=O)[C@@H](N)Cc2ccccc2)C(C)C)C(C)C)C(C)C)C(C)C)CSSC[C@@H](C(=O)O)NC(=O)[C@H](CCCCN)NC(=O)[C@H](CCC(N)=O)NC(=O)[C@H]([C@@H](C)O)NC1=O [FLPAVLRVAAKVGPAVFCAITQKC]
[1]
  MIC: 4 µM (≈ 9.99 µg/mL)
[2]
  MIC: 4 µM (≈ 9.99 µg/mL)
[3]
  MIC: 20 µM (≈ 50 µg/mL)
[4]
  MIC: 2 µM (≈ 5 µg/mL)
[5]
  MIC: 2 µM (≈ 5 µg/mL)
[6]
  MIC: 4 µM (≈ 9.99 µg/mL)
[7]
  MIC: 2 µM (≈ 5 µg/mL)
[8]
  MIC: 2 µM (≈ 5 µg/mL)
[9]
  MIC: 0.999 µM (≈ 2.5 µg/mL)
[10]
  MIC: 4 µM (≈ 9.99 µg/mL)
[11]
  MIC: 0.999 µM (≈ 2.5 µg/mL)
[12]
  MIC: 4 µM (≈ 9.99 µg/mL)
[13]
  MIC: 4 µM (≈ 9.99 µg/mL)
[14]
  MIC: 0.2 µM (≈ 0.5 µg/mL)
[15]
  MIC: 20 µM (≈ 50 µg/mL)

## CC[C@H](C)[C@H](NC(=O)[C@H](CC(C)C)NC(=O)[C@H](CO)NC(=O)[C@@H]1CCCN1C(=O)[C@@H](NC(=O)[C@H](C)NC(=O)[C@H](CCCCN)NC(=O)[C@H](CCSC)NC(=O)[C@H](C)NC(=O)[C@H](CC(C)C)NC(=O)[C@H](CCCCN)NC(=O)CNC(=O)[C@H](CC(C)C)NC(=O)[C@H](Cc1ccccc1)NC(=O)CNC(=O)[C@H](Cc1c[nH]c2ccccc12)NC(=O)[C@@H](N)Cc1ccccc1)C(C)C)C(=O)NCC(=O)NCC(=O)N[C@@H](CC(N)=O)C(=O)N[C@@H](CCCCN)C(=O)N[C@@H](CCCCN)C(=O)O [FWGFLGKLAMKAVPSLIGGNKK]
[16]
  MIC: 5 µM (≈ 11.8 µg/mL)
[17]
  MIC: 8.5 µM (≈ 20.1 µg/mL)
[18]
  MIC: 10 µM (≈ 23.6 µg/mL)
[19]
  MIC: 25 µM (≈ 59.1 µg/mL)
[9]
  MIC: 5 µM (≈ 11.8 µg/mL)
[20]
  MIC: 3.12 µM (≈ 7.38 µg/mL)
[11]
  MIC: 24 µM (≈ 56.7 µg/mL)
[21]
  MIC: 13.6 µM (≈ 32.1 µg/mL)

## CC[C@H](C)[C@H](NC(=O)CNC(=O)[C@@H](NC(=O)[C@H](CCCCN)NC(=O)[C@H](CCCCN)NC(=O)[C@H](Cc1ccccc1)NC(=O)[C@H](CC(C)C)NC(=O)[C@H](CCCCN)NC(=O)[C@H](Cc1c[nH]c2ccccc12)NC(=O)[C@@H](N)CCCCN)[C@@H](C)CC)C(=O)NCC(=O)N[C@@H](CCCCN)C(=O)N[C@@H](Cc1ccccc1)C(=O)N[C@@H](CC(C)C)C(N)=O [KWKLFKKIGIGKFL]
[22]
  MIC: 3.12 µM (≈ 5.32 µg/mL)
[23]
  MIC: 6.25 µM (≈ 10.7 µg/mL)
[24]
  MIC: 1.56 µM (≈ 2.66 µg/mL)
[25]
  MIC: 12.5 µM (≈ 21.3 µg/mL)
[26]
  MIC: 8.84 µM (≈ 15.1 µg/mL)
[27]
  MIC: 6.25 µM (≈ 10.7 µg/mL)

## CC(C)C[C@H](NC(=O)[C@H](CC(C)C)NC(=O)[C@@H](N)CC(C)C)C(=O)NCC(=O)N[C@@H](C)C(=O)N[C@@H](C)C(=O)N[C@H](C(=O)NCC(=O)O)[C@@H](C)O [LLLGAATG]
[28]
  MIC: ≥ 86.7 µM

## NC(=O)[C@H](CCCN=C(N)N)NC(=O)[C@H](CO)NC(=O)[C@H](CCCN=C(N)N)NC(=O)[C@@H](N)CO [SRSR]
[29]
  MIC: ≥ 100 µM
